Earlier results as cited in patent US20050003017A1, “Hypotensive and hypertensive properties of renomedullar extracts” (priority 2000, published 2005).

Conditions: low stability; Svensson et al.

CCCCC[C@H](O)/C=C/[C@H]1O[C@H]2C[C@H](O2)[C@@H]1C/C=C\CCCC(=O)O [thromboxan A2]
half life: about 30 seconds
